From US9718809B2, “Bisarylsulfonamides useful in the treatment of inflammation and cancer” (Kancera AB, priority 2011, dated 2017)

Assays:
[1] = system: F-2,6-P2 in MCF-7 cells; assay: Quantification of F-2,6-P2 (Van Schaftingen coupled enzyme assay) in MCF-7 cells; assay type: cell-based; conditions: Homo sapiens, MCF7, read-out: IC50 based on quantification of F-2,6-P2
Excerpt: A method for quantification of F-2,6-P2 has been described by Van Schaftingen et al. (1982) Eur. J. Biochem. 129, 191-5. This sensitive assay is based on the potent activation of pyrophosphate dependent phosphofructokinase-1 (PPi-PFK) from potato tubers by F-2,6-P2. The use of a series of coupled enzymes leads to a consumption of NADH (nicotinamide adenine dinucleotide) that can be followed spectrophotometrically (an updated protocol is available in Van Schaftingen, (1984) Methods of Enzymatic Analysis (Bergmeyer, H. U., ed.), 3rd edn., vol. 6, pp. 335-341, Verlag Chemie, Weinheim). A protocol for measurements in 96-well microtiter plate format is also available (Bruni et al., (1989) Anal. Biochem. 178, 324-6).
The levels of F-2,6-P2 have been determined using the van Shaftingen assay as described in the protocol below, in six different cancer cell lines endogenously expressing varying levels of the different isoforms of PFK-2/BPase-2 (MCF-7, PANC-1, NUGC-3, SW480, SW620 and MIA PaCa-2). All reagents were purchased from commercial sources or prepared in-house.
Cell line A (MCF-7, human breast adenocarcinoma cell line): MCF-7 cells (ATCC-HTB-22), lot. no. 58469417. […]

[2] = system: SW620 cells; assay: Inhibition of cancer cell proliferation, total cellular protein (Sulphorhodamine B), SW620; conditions: Homo sapiens, SW-620, 72 h, read-out: IC50 based on quantitation of total cellular protein after treatment
Protocol: To assess the antiproliferative response elicited by the compounds of the present invention in different tumour cell lines, total cellular protein in samples was quantified using the Sulphorhodamine B kit, TOX6, (Sigma-Aldrich). The protocol is based on quantitation of total cellular protein after indicated treatments and incubation times using the Sulphorhodamine B kit, TOX6, (Sigma-Aldrich).
Briefly, after protein precipitation using TCA according to the manufacturer's instructions, the sulphorhodamine dye (80 μL/well) was added to the air-dried wells. After 20 min incubation at room temperature, the dye was discarded and the samples were gently rinsed with 1% HOAc until clear. After air drying, bound dye was solubilised in 200 μL 10 mM Tris base, and the absorbance of dye was measured at 565 nm. To quantify growth, samples were collected also at t=0 h, and the resulting absorbance was set to 100%. […]
After protein precipitation using TCA according to the manufacturer's instructions, the sulforhodamine B dye (50 μL/well) was added to the air-dried wells. […] After air drying, bound dye was solubilised in 100 μL 10 mM Tris base, and the absorbance of dye was measured at 530 nm and a background absorbance (subtract from the measurement at 530 nm) at 690 nm. To quantify growth, samples were collected also at t=0 h.

[3] = system: F-2,6-P2 in PANC-1 cells; assay: Quantification of F-2,6-P2 (Van Schaftingen coupled enzyme assay) in PANC-1 cells; assay type: cell-based, human; conditions: Homo sapiens; PANC-1 cells; read-out: IC50 based on quantification of F-2,6-P2
In short: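 PANC-1 cells (~25 000/well) starved 18 h in glucose-free 0.25% FBS medium, treated 1 h with compound (50 and 10 μM, or dose response from 50 μM; 0.5% DMSO), then glucose added for 2 h at 37 °C. Cells lysed in NaOH; F-2,6-P2 quantified by PPi-PFK coupled NADH-consumption spectrophotometry.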

| IC50 [1] | IC50 [2] | IC50 [3] | SMILES |
| --- | --- | --- | --- |
| 0.9 µM | – | – | COCCOC(=O)c1ccc(NS(=O)(=O)c2cc(-c3ccc4c(c3)CCO4)c(Cl)s2)cc1O [Example 76, 2-Methoxyethyl 4-({[5-chloro-4-(2,3-dihydro-1-benzofuran-5-yl)-2-thienyl]sulfonyl}amino)-2-hydroxybenzoate] |
| – | 11.8 µM | 1.5 µM | COC(=O)c1ccc(NS(=O)(=O)c2cc(Cl)c(Cl)s2)cc1OC(C)=O [Example 132, Methyl 2-(acetyloxy)-4-{[(4,5-dichlorothiophen-2-yl)sulfonyl]amino}benzoate] |
